Read-outs that look alike come from different tables or passages of the source.
Columns and labels:
[1] = tested on: panel of cancer cells (T24, DU-145, MCF-7); assay: MTT reduction assay, panel of cancer cells (means, ranges, selectivity index); assay type: cell-based, human; conditions: for IC50: Homo sapiens; for MSI: mean selective index: IC50 values of fibroblasts (AG 1523)/IC50 values of tumor cells (T24, DU-145, MCF-7)
Method: (§1) As positive control, two well-known anticancer drugs, namely TAM and 5-FU, were also tested on these cell lines. […] Regarding 5-FU, it is a broad-spectrum chemotherapeutic drug used to treat a variety of malignancies. Particularly, it has a long history of use against bladder tumors.
Such a selective index was calculated as the ratio between IC50 values of healthy cells/IC50 values in cancer cells.
(§2) Cells were seeded into 96-well plates at a density of 10,000 cells/well for 24 h and then incubated for 48 h with or without the quinone derivatives. […] The IC50 values were determined using the GraphPad Prism software (San Diego, CA, USA). Further incubation procedures and optical density reading of colored solutions were performed according to Benites et al..

[2] = tested on: DU-145 (prostate) cells; assay: MTT reduction assay, DU-145 cells; assay type: cell-based; conditions: Homo sapiens, DU-145, 48 h, read-out: IC50 ± SEM DU-145
Method: as §1
(§3) Cell culture conditions were the same as reported elsewhere. Briefly, cell lines were kept in DMEM containing 10% fetal calf serum. In addition, 100 U/mL of penicillin and 100 µg/mL streptomycin from Gibco (Grand Island, NY, USA) were further added. Cell cultures were kept at 37 °C under an atmosphere of 95% air/5% CO2 and 100% humidity. Sodium L-ascorbate, menadione (vitamin K3), TAM, and 5-FU were purchased from Sigma (St. Louis, MO, USA).
(§4) The cytotoxicity of the quinones was assessed by following the reduction of MTT (3-(4,5-dimethylthiazol-2-yl)-2,5-diphenyltetrazolium bromide) to formazan blue and the capability of cancer cells to proliferate, namely a clonogenic assay.
as §2

[3] = tested on: T24 (bladder) cells; assay: MTT reduction assay, T24 cells; assay type: cell-based; conditions: Homo sapiens, T-24, 48 h incubation, read-out: IC50 ± SEM T24
Method: as §1, §3, §4, §2

[4] = tested on: MCF-7 (breast) cells; assay: MTT reduction assay, MCF-7 cells; assay type: cell-based; conditions: Homo sapiens, MCF7, 48 h incubation, read-out: IC50 ± SEM MCF-7
Method: as §1, §3, §4, §2

[5] = tested on: non-tumor fibroblasts AG 1523; assay: MTT reduction assay, non-tumor fibroblasts; assay type: cell-based; conditions: Homo sapiens, AG1523, 48 h incubation, read-out: IC50 ± SEM AG 1523
Method: as §1, §3, §4, §2

[6] = tested on: DU-145 (prostate) cells; design: method as in doi:10.1016/j.tetlet.2015.07.034; conditions: read-out: IC50 ± SEM DU-145, MTT, data from Valderrama et al. ref 16; cited from earlier work
[7] = tested on: MCF-7 (breast) cells; design: method as in doi:10.1016/j.tetlet.2015.07.034; conditions: MTT, data from Valderrama et al. ref 16, read-out: IC50 ± SEM MCF-7; cited from earlier work
[8] = tested on: T24 (bladder) cells; design: method as in doi:10.1016/j.tetlet.2015.07.034; conditions: MTT, data from Valderrama et al. ref 16, read-out: IC50 ± SEM T24; cited from earlier work
[9] = tested on: T24 cells; assay: Clonogenic assay; assay type: cell-based, human; conditions: for cell growth compared to control conditions (100%), in brackets / number of colony forming units (CFUs): T24 cells; for number of colony forming units (CFUs): 24 h treatment, 10 days growth
Method: Indeed, at a dose of 0.25 µM, it decreased from 195 to 72 the number of CFUs. Otherwise, it inhibits the proliferation of T24 cells by 63% as compared to the control untreated cells. […] The percentages of the observed cell growth compared to control conditions (100%) are indicated in brackets. […] Cells were allowed to adhere overnight, and then treated with quinones for 24 h. Afterward, they were washed with warm PBS, given fresh medium, and allowed to grow for 10 days. Clonogenic survival was determined by fixing and staining colonies using crystal violet and further counting their number. The number of colonies calculated under control conditions was set as 100%.

[10] = read-out: mean IC50 value calculated from the individual IC50 values of the three cancer cell lines
[11] = read-out: IC50 values on the panel of cancer cells (range over cell lines)

Structure (SMILES) | IC50 [1, 10] [µM] | IC50 [2] [µM] | IC50 [3] [µM] | IC50 [4] [µM] | MSI: mean selective index [1] | IC50 [5] [µM] | other results
O=c1[nH]cc(F)c(=O)[nH]1 [5-Fluorouracil, 5-fluorouracil, reference compound] | 7.8 | – | – | – | – | – | –
CC1(O)C2=C(N=C3Sc4ccccc4N31)C(=O)c1ccccc1C2=O (centres unmarked) [Compound 11] | – | 9.59 ± 0.32 | 4.65 ± 0.43 | 6.83 ± 1.29 | 1.52 | 10.7 ± 0.57 | –
CCCC1(O)C2=C(N=C3Sc4ccccc4N31)C(=O)c1ccccc1C2=O (centres unmarked) [Compound 12] | – | – | – | – | 1.28 | 8.82 ± 0.27 | IC50 [6]: 11.6 ± 2.05 µM; IC50 [7]: 4.25 ± 0.5 µM; IC50 [8]: 4.86 ± 0.5 µM
CCCCCC1(O)C2=C(N=C3Sc4ccccc4N31)C(=O)c1ccccc1C2=O (centres unmarked) [Compound 13] | – | 7.99 ± 0.17 | 6.85 ± 0.54 | 5.83 ± 0.25 | 1.24 | 8.55 ± 0.35 | –
CCCCCCCC1(O)C2=C(N=C3Sc4ccccc4N31)C(=O)c1ccccc1C2=O (centres unmarked) [Compound 14] | – | 9.04 ± 0.69 | 8.42 ± 1.27 | 6.84 ± 0.79 | 0.90 | 7.28 ± 0.39 | –
CCCC1(O)C2=C(N=C3Sc4cc(C)ccc4N31)C(=O)c1ccccc1C2=O (centres unmarked) [Compound 16] | 1.1 to 1.61 | – | – | – | 2.62 | 3.46 ± 0.08 | cell growth compared to control conditions (100%), in brackets ([9]; 0.025 µM): 101%; number of colony forming units (CFUs) ([9]; 0.025 µM): 204 ± 19 CFUs; cell growth compared to control conditions (100%), in brackets ([9]; 0.125 µM): 107%; number of colony forming units (CFUs) ([9]; 0.125 µM): 216 ± 29 CFUs; cell growth compared to control conditions (100%), in brackets ([9]; 0.25 µM): 94%; number of colony forming units (CFUs) ([9]; 0.25 µM): 189 ± 12 CFUs; cell growth compared to control conditions (100%), in brackets ([9]; 1.25 µM): 39%; number of colony forming units (CFUs) ([9]; 1.25 µM): 79 ± 9 CFUs; cell growth compared to control conditions (100%), in brackets ([9]; 2.5 µM): 29%; number of colony forming units (CFUs) ([9]; 2.5 µM): 58 ± 12 CFUs; cell growth compared to control conditions (100%), in brackets ([9]; 5.0 µM): 11%; number of colony forming units (CFUs) ([9]; 5.0 µM): 23 ± 15 CFUs; IC50 [6]: 0.85 ± 0.1 µM; IC50 [1, 11]: 0.11 to 1.77 µM; IC50 [7]: 1.77 ± 0.26 µM; IC50 [8]: 1.36 ± 0.15 µM
CCCCCCCC1(O)C2=C(N=C3Sc4cc(C)ccc4N31)C(=O)c1ccccc1C2=O (centres unmarked) [Compound 18] | – | 7.55 ± 0.69 | 5.6 ± 0.29 | 7.12 ± 0.65 | 0.89 | 6.02 ± 0.29 | –
COc1ccc2c(c1)SC1=NC3=C(C(=O)c4ccccc4C3=O)C(C)(O)N12 (centres unmarked) [Compound 19] | 1.1 to 1.61 | – | – | – | 3.97 | 6.4 ± 0.46 | inhibition at 0.25 µM ([9]; Homo sapiens, T-24, clonogenic assay, 0.25 µM, read-out: inhibition of the proliferation of T24 cells as compared to control untreated cells): 28%; cell growth compared to control conditions (100%), in brackets ([9]; 0.025 µM): 102%; number of colony forming units (CFUs) ([9]; 0.025 µM): 195 ± 16 CFUs; cell growth compared to control conditions (100%), in brackets ([9]; 0.125 µM): 96%; number of colony forming units (CFUs) ([9]; 0.125 µM): 183 ± 21 CFUs; cell growth compared to control conditions (100%), in brackets ([9]; 0.25 µM): 72%; number of colony forming units (CFUs) ([9]; 0.25 µM): 138 ± 18 CFUs; cell growth compared to control conditions (100%), in brackets ([9]; 1.25 µM): 36%; number of colony forming units (CFUs) ([9]; 1.25 µM): 68 ± 12 CFUs; cell growth compared to control conditions (100%), in brackets ([9]; 2.5 µM): 16%; number of colony forming units (CFUs) ([9]; 2.5 µM): 30 ± 16 CFUs; cell growth compared to control conditions (100%), in brackets ([9]; 5.0 µM): 18%; number of colony forming units (CFUs) ([9]; 5.0 µM): 35 ± 11 CFUs; IC50 [6]: 0.79 ± 0.11 µM; IC50 [1, 11]: 0.11 to 1.77 µM; IC50 [7]: 2.72 ± 0.18 µM; IC50 [8]: 1.32 ± 0.11 µM
CCCC1(O)C2=C(N=C3Sc4cc(OC)ccc4N31)C(=O)c1ccccc1C2=O (centres unmarked) [Compound 20] | 1.1 to 1.61 | 1.13 ± 0.05 | 1.89 ± 0.15 | 1.67 ± 0.12 | 3.17 | 4.99 ± 0.59 | cell growth compared to control conditions (100%), in brackets ([9]; 0.025 µM): 96%; number of colony forming units (CFUs) ([9]; 0.025 µM): 204 ± 17 CFUs; cell growth compared to control conditions (100%), in brackets ([9]; 0.125 µM): 100%; number of colony forming units (CFUs) ([9]; 0.125 µM): 214 ± 25 CFUs; cell growth compared to control conditions (100%), in brackets ([9]; 0.25 µM): 106%; number of colony forming units (CFUs) ([9]; 0.25 µM): 225 ± 19 CFUs; cell growth compared to control conditions (100%), in brackets ([9]; 1.25 µM): 55%; number of colony forming units (CFUs) ([9]; 1.25 µM): 118 ± 22 CFUs; cell growth compared to control conditions (100%), in brackets ([9]; 2.5 µM): 42%; number of colony forming units (CFUs) ([9]; 2.5 µM): 89 ± 10 CFUs; cell growth compared to control conditions (100%), in brackets ([9]; 5.0 µM): 22%; number of colony forming units (CFUs) ([9]; 5.0 µM): 46 ± 7 CFUs; IC50 [1, 11]: 0.11 to 1.77 µM
CCCCCC1(O)C2=C(N=C3Sc4cc(OC)ccc4N31)C(=O)c1ccccc1C2=O (centres unmarked) [Compound 21] | – | 7.43 ± 0.28 | 7.09 ± 0.14 | 4.63 ± 0.3 | 1.78 | 11.3 ± 1.1 | –
CCCCCCCC1(O)C2=C(N=C3Sc4cc(OC)ccc4N31)C(=O)c1ccccc1C2=O (centres unmarked) [Compound 22] | – | 6.62 ± 0.19 | 5.95 ± 0.45 | 3.52 ± 0.32 | 1.11 | 5.97 ± 0.24 | –
O=C1C2=C(C(=O)c3ccccc31)C(O)(c1ccco1)N1C(=N2)Sc2ccccc21 (centres unmarked) [Compound 23] | 10.5 to 12.6 | 19.9 ± 0.5 | 9.29 ± 0.77 | 8.62 ± 0.72 | 1.72 | 21.7 ± 0.27 | –
COc1ccc2c(c1)SC1=NC3=C(C(=O)c4ccccc4C3=O)C(O)(c3ccco3)N12 (centres unmarked) [Compound 24] | – | 4.69 ± 0.33 | 10.4 ± 1 | 11.7 ± 0.65 | 10.1 | 90.1 ± 1.21 | –
O=C1C2=C(C(=O)c3ccccc31)C(O)(c1cccs1)N1C(=N2)Sc2ccccc21 (centres unmarked) [Compound 25] | – | 7.85 ± 0.6 | 8.72 ± 0.41 | 7.32 ± 0.36 | 1.60 | 12.8 ± 0.31 | –
O=C1C2=C(C(=O)c3ccccc31)C(O)(c1cccs1)N1C(=N2)Sc2cc(F)ccc21 (centres unmarked) [Compound 26] | 10.5 to 12.6 | 10.8 ± 1.01 | 13.4 ± 2.37 | 7.46 ± 0.53 | 1.88 | 19.8 ± 0.83 | –

— publication PMC7071032, “In Vitro Inhibition of Hsp90 Protein by Benzothiazoloquinazolinequinones Is Enhanced in The Presence of Ascorbate. A Preliminary In Vivo Antiproliferative Study” (Molecules, 2020)
